According to patent US20140294729A1, “METHODS FOR IDENTIFICATION AND USE OF AGENTS TARGETING CANCER STEM CELLS” (Whitehead Institute for Biomedical Research, priority 2008, published 2014):

Assays:
Format in all cases: cell-based, human
[1] = tested on: HMLER cells; assay: Growth rate of HMLER cultures after treatment; conditions: FIG. 6B
Protocol: FIGS. 6A and 6B depict effects of salinomycin on the CSC population in HMLER cell line. (FIG. 6A) HMLER cells were treated with vehicle control (dmso), salinomycin or paclitaxel at the indicated concentrations for 15 days. FACS analysis were performed at the end of treatment to gauge the CD44+/CD24− CSC population (right panels). Note that salinomycin decreases the CD44+/CD24− population from a basal of 4.9% to 0.2%. Treated cultures were also subjected to the mammosphere formation assay (left panels). Number of mammopsheres formed per 1000 cells from each culture are indicated below the representative photographs of assay wells. (FIG. 6B) Growth rates of HMLER cultures after treatment with vehicle control (dmso), salinomycin or paclitaxel at the indicated concentrations in (A) for 15 days.
We then turned to the critical question of whether the compounds had the general ability to inhibit CSCs in breast cancer cell lines. […] We next compared the effects of salinomycin, control vehicle DMSO and paclitaxel on HMLER cells. […] The CD44+/CD24− fraction was thus 360-fold lower following treatment with salinomycin than with paclitaxel (FIG. 6A). Proliferation of the bulk population was not inhibited following treatment with salinomycin relative to either vehicle- or paclitaxel-treatment (FIG. 6B).

[2] = tested on: HMLERshEcad cells; assay: Dose response of transformed HMLERshCntrl vs HMLERshEcad cells to screen hits; conditions: range of concentrations, FIG. 4D
Protocol: FIG. 4A depicts dose response curves of HMLEshCntrl (A, light gray curve) and HMLEshEcad (A, dark gray curve) cells treated with the 8 compounds identified during the initial screen. 1000 cells of each line were seeded onto 384 well plates and treated with 8 different concentrations of compounds within a 2.5 log range. The cell viability after 3 day treatment was measured by Cell-Titer-Glo. […] FIG. 4B depicts dose response curves of HMLEshCntrl (curve with square data points) and HMLE-Twist (curve with triangular data points) cells treated with the same compounds as in (A). Note that selectivity of Salinomycin, Abamectin, Etoposide and Nigericin (Top, Left-to-Right) is retained even though a different method of EMT induction is used. […] 1 Day after seeding DMSO, Salinomycin (1.25 or 5 μM) or Abamectin (0.25 or 1.25 μM) was added at the indicated concentration. As the GFP vector contains a Blasticidin resistance gene, we used Blasticidin treatment as a positive control for the expansion of GFP-expressing control HMLE cells. After 3 day incubation the mix population of cells were analyzed by flow cytometry and the percentage of GFP-positive cells were determined. […] FIG. 4D depicts dose response curves of transformed HMLERshCntrl (light gray line) and HMLERshEcad (dark gray lines) cells treated with Salinomycin and Abamectin. Dotted line denotes the 50% fraction surviving.

[3] = tested on: HMLERshEcad cells; assay: Resistance to cytotoxic agents, transformed HMLERshCntrl vs HMLERshEcad dose response; conditions: FIG. 2A
Protocol: (§1) FIGS. 2A-2D depict that passage through the EMT leads to resistance to conventional chemotherapy drugs. FIG. 2A depicts dose response curves of transformed HMLERshCntrl (light gray line) and HMLERshEcad (dark gray line) cells treated with Paclitaxel and Doxorubicin. Dotted line denotes the 50% fraction surviving. […] FIG. 2B depicts the response of immortalized cells to chemotherapy drugs. HMLEshCntrl and HMLEshEcad cells were treated with the indicated drugs at three concentrations for 3 days and assayed for viability using the MTS assay. While Doxorubucin, Actinomycin D, Paclitaxel and Campthotecin are chemotherapeutic drugs, Staurosporine is a general kinase inhibitor that potently induce apoptosis. FIGS. 2C and 2D depict paclitaxel treatment leads to selective expansion of a minority cell population that has undergone an EMT. Control HMLE cells and GFP expressing HMLEshEcad cells were mixed at a ratio of 20:1 and seeded onto 6-well plates in triplicate. DMSO or Paclitaxel at 2.5 nm or 10 nm concentration was added onto the mixed cell populations 1 day after seeding followed by a 3 day incubation. The number of GFP-positive cells at the end of treatment were analyzed by flow cytometry. […] Note the increase in GFP positivity from 5% to 14% upon […] Paclitaxel treatment.
Since the HMLERsiEcad cells have a 100-fold increase in the frequency of cells capable of seeding tumors, we examined their response to two commonly used chemotherapy drugs, relative to HMLERsiGFP controls. We treated cultured HMLERsiGFP and HMLERsiEcad cells for a period of 3 days with either doxorubicin or paclitaxel, at various concentrations.
(§2) Doxorubicin, paclitaxel, actinomycin D, campthotecin and staurosporine were purchased from Sigma and dissolved in dimethyl sulfoxide (dmso). 5000 cells in 100 ul of medium were plated per well in 96-well plates. 24 hrs after seeding, compounds at the indicated concentration were added to wells (5 wells per each concentration). Dmso treatment was used as negative control. Cell viability was measured after 72 hrs using the CellTiter96 AQueous Assay (Promega) according to manufacturer's instructions. Dose response curves were generated with GraphPad Prism software (GraphPad Software, Inc.).

[4] = tested on: HMLEshEcad cells; assay: Resistance to cytotoxic agents, immortalized HMLEshCntrl vs HMLEshEcad (MTS viability); conditions: three concentrations, FIG. 2B
Protocol: as §1
However, we postulated that the differential drug sensitivity observed was, rather, a consequence of the respective differentiation states of the immortalized cells from which the cancer cell lines were derived. To directly examine this hypothesis, we treated HMLEsiGFP and HMLEsiEcad cells for a period of […] with a series of chemical compounds at 3 different concentrations each. Included in these compounds were the established chemotherapy drugs Doxorubicin, Paclitaxel, Actinomycin D, Camptothecin as well as a broad kinase inhibitor, Staurosporine.
as §2

Structure (SMILES) | proliferation of the bulk population relative to vehicle- or paclitaxel-treatment [1] | selective toxicity for HMLERshEcad (MT tumorigenic) cells [2] | selective toxicity for HMLERshEcad (MT tumorigenic) cells ([2]; listed as Salinomycin) | IC50 for HMLERsiEcad cells relative to IC50 for HMLERsiGFP cells ([3]; 3 days, various concentrations) | resistance of HMLERshEcad cells compared to HMLERshCntrl cells [3] | resistance of HMLERshEcad cells compared to HMLERshCntrl cells ([3]; listed as Paclitaxel) | resistance of HMLEshEcad cells relative to HMLEshCntrl control cells [4]
CC[C@@H](C(=O)[C@@H](C)[C@@H](O)[C@H](C)[C@@H]1O[C@@H]([C@@H](CC)C(=O)O)CC[C@@H]1C)[C@H]1O[C@]2(C=C[C@@H](O)[C@]3(CC[C@@](C)([C@H]4CC[C@](O)(CC)[C@H](C)O4)O3)O2)[C@H](C)C[C@@H]1C [salinomycin] | not inhibited | selectively toxic | remains | – | – | – | –
CC(=O)O[C@H]1C(=O)[C@@]2(C)[C@H]([C@H](OC(=O)c3ccccc3)[C@]3(O)C[C@H](OC(=O)[C@H](O)[C@@H](NC(=O)c4ccccc4)c4ccccc4)C(C)=C1C3(C)C)[C@]1(OC(C)=O)CO[C@@H]1C[C@@H]2O [paclitaxel] | – | – | – | significantly higher | significantly more resistant | more resistant | increased resistance
